Measured values published in patent US9226501B2, “Pesticidal compositions and processes related thereto” (Dow AgroSciences LLC, priority 2012, dated 2016).

Experiments:
[1] = system: Cabbage Looper (CL) (Trichoplusia ni); assay: Bioassay on cabbage looper (CL), 128-well diet tray assay; format: in vivo; conditions: for pest or weed control at 50 µg/cm2: Trichoplusia ni, 168 h, % mortality, second instar larvae, 50 μg/cm^2 on artificial diet, five to seven days, 25° C., read-out: CL Rating; for CL Rating: Table 5, prophetic compounds subsequently exemplified, cabbage looper
Protocol: (§1) Certain molecules disclosed in this document were tested against BAW, CEW and CL using procedures described in the following examples. In the reporting of the results, the “BAW & CEW & CL Rating Table” was used (See Table Section).
Bioassays on CL were conducted using a 128-well diet tray assay. One to five second instar CL larvae were placed in each well (3 mL) of the diet tray that had been previously filled with 1 mL of artificial diet to which 50 μg/cm^2 of the test compound (dissolved in 50 μL of 90:10 acetone-water mixture) had been applied (to each of eight wells) and then allowed to dry. Trays were covered with a clear self-adhesive cover, and held at 25° C., 14:10 light-dark for five to seven days. Percent mortality was recorded for the larvae in each well; activity in the eight wells was then averaged. The results are indicated in the table entitled “Table 4: Assay Results Part 2” (See Table Section).

[2] = system: Beet Armyworm (BAW) (spodoptera exigua); assay: Bioassay on beet armyworm (BAW), 128-well diet tray assay; format: in vivo; conditions: for pest or weed control at 50 µg/cm2: Spodoptera exigua, 168 h, % mortality, second instar larvae, 50 μg/cm^2 on artificial diet, five to seven days, 25° C., read-out: BAW Rating
Protocol: as §1
Bioassays on BAW were conducted using a 128-well diet tray assay. One to five second instar BAW larvae were placed in each well (3 mL) of the diet tray that had been previously filled with 1 mL of artificial diet to which 50 μg/cm^2 of the test compound (dissolved in 50 μL of 90:10 acetone-water mixture) had been applied (to each of eight wells) and then allowed to dry. Trays were covered with a clear self-adhesive cover, and held at 25° C., 14:10 light-dark for five to seven days. Percent mortality was recorded for the larvae in each well; activity in the eight wells was then averaged. The results are indicated in the tables entitled “Table 3: Assay Results Part 1” and “Table 4: Assay Results Part 2” (See Table Section).

[3] = Table 5, prophetic compounds subsequently exemplified, beet armyworm

SMILES | CL Rating [1] | BAW Rating [2, 3] | also measured
O=C(CNC(=O)c1ccc(/C=C/C(c2cc(Cl)c(O)c(Cl)c2)C(F)(F)F)cc1Br)NCC(F)(F)F (stereo not drawn) [FA13] | – | – | pest or weed control at 50 µg/cm2 [1]: 50 to 100%
C[C@@H](NC(=O)c1ccc(/C=C/C(c2ccc(F)c(F)c2F)C(F)(F)F)cc1C(F)(F)F)C(=O)NCC(F)(F)F (stereo partly drawn) [P84] | A (50-100) | A (50-100) | –
C=Cc1cc(/C=C/C(c2cc(Cl)c(Cl)c(Cl)c2)C(F)(F)F)ccc1C(=O)NCC(=O)NCC(F)(F)F (stereo not drawn) [FA18] | – | – | pest or weed control at 50 µg/cm2 [1]: 50 to 100%; pest or weed control at 50 µg/cm2 [2]: 50 to 100%
C[C@@H](NC(=O)c1ccc(/C=C/C(c2cc(Cl)c(Cl)c(Cl)c2)C(F)(F)C(F)(F)F)cc1C(F)(F)F)C(=O)NCC(F)(F)F (stereo partly drawn) [P1601] | A (50-100) | A (50-100) | –
CC(C)(NC(=O)c1ccc(/C=C/C(c2cc(Cl)c(Cl)c(Cl)c2)C(F)(F)F)cc1)C(=O)NCC(F)(F)F (stereo not drawn) [P1636] | A (50-100) | A (50-100) | –
O=C(CNC(=O)c1ccc(/C=C/C(c2cc(Cl)c(Cl)c(Cl)c2)C(F)(F)F)cc1Cl)NCC(F)F (stereo not drawn) [FA1] | – | – | pest or weed control at 50 µg/cm2 [1]: 50 to 100%; pest or weed control at 50 µg/cm2 [2]: 50 to 100%
C[C@@H](NC(=O)c1ccc(/C=C/C(c2cc(Cl)c(Cl)c(Cl)c2)C(F)(F)F)cc1Br)C(=O)NCCF (stereo partly drawn) [P1616] | A (50-100) | A (50-100) | –
Cc1cc(/C=C/C(c2cc(Br)cc(Br)c2)C(F)(F)F)ccc1C(=O)NCC(=O)NCC(F)(F)F (stereo not drawn) [P1972] | A (50-100) | A (50-100) | –
Cc1ccc(C(/C=C/c2ccc(C(=O)N[C@H](C)C(=O)NCC(F)(F)F)c(C(F)(F)F)c2)C(F)(F)F)cc1Cl (stereo partly drawn) [P444] | A (50-100) | A (50-100) | –
Cc1ccc(C(/C=C/c2ccc(C(=O)N[C@H](C)C(=O)NCC(F)(F)F)c(Br)c2)C(F)(F)F)cc1Cl (stereo partly drawn) [P442] | A (50-100) | A (50-100) | –
O=C(NC1CCN(C2COC2)CC1)c1ccc(/C=C/C(c2cc(Cl)c(Cl)c(Cl)c2)C(F)(F)F)cc1Br (stereo not drawn) [AC108, (E)-2-Bromo-N-(1-(oxetan-3-yl)piperidin-4-yl)-4-(4,4,4-trifluoro-3-(3,4,5-trichlorophenyl)but-1-en-1-yl)benzamide] | – | – | BAW Rating ([2]; Table 3, beet armyworm): B (More than 0-Less than 50)
C[C@@H](NC(=O)c1ccc(/C=C/C(c2ccc(F)c(F)c2F)C(F)(F)F)cc1Br)C(=O)NCC(F)(F)F (stereo partly drawn) [P82] | A (50-100) | A (50-100) | –
O=C(CNC(=O)c1ccc(/C=C/C(c2cc(F)c(F)c(F)c2)C(F)(F)F)cc1Br)NCC(F)(F)F (stereo not drawn) [P1197] | A (50-100) | A (50-100) | –
C[C@@H](NC(=O)c1ccc(/C=C/C(c2cc(Cl)c(Cl)cc2Cl)C(F)(F)F)cc1Br)C(=O)NCC(F)(F)F (stereo partly drawn) [P156] | A (50-100) | A (50-100) | –
O=C(CNC(=O)c1ccc(/C=C/C(c2cc(Cl)c(Cl)c(Cl)c2)C(F)(F)F)cc1Br)NCC(F)F (stereo not drawn) [FA3] | – | – | pest or weed control at 50 µg/cm2 [1]: 50 to 100%; pest or weed control at 50 µg/cm2 [2]: 50 to 100%
O=C(NCC(=S)NCC(F)(F)F)c1ccc(/C=C/C(c2cc(Cl)c(Cl)c(Cl)c2)C(F)(F)F)cc1Cl (stereo not drawn) [P1558] | A (50-100) | A (50-100) | –
CC(NC(=O)CNC(=O)c1ccc(/C=C/C(c2cc(Br)cc(Br)c2)C(F)(F)F)cc1Br)C(F)(F)F (stereo not drawn) [P2009] | A (50-100) | A (50-100) | –
CCNC(=O)[C@@H](C)NC(=O)c1ccc(/C=C/C(c2cc(Cl)c(Cl)c(Cl)c2)C(F)(F)F)cc1C (stereo partly drawn) [P1624] | A (50-100) | A (50-100) | –
O=C(NCCc1ccc(Cl)nc1)c1ccc(/C=C/C(c2cc(Cl)c(Cl)c(Cl)c2)C(F)(F)F)cc1Br (stereo not drawn) [AC113] | – | – | BAW Rating ([2]; Table 3, beet armyworm): B (More than 0-Less than 50)
N#Cc1c(F)cc(C(/C=C/c2ccc(C(=O)NCC(=O)NCC(F)(F)F)c(Br)c2)C(F)(F)F)cc1F (stereo not drawn) [P2] | A (50-100) | – | –
FC(F)(F)C(/C=C/c1ccc(-n2cncn2)cc1)c1ccccc1 (stereo not drawn) [DC3] | – | – | BAW Rating ([2]; Table 3, beet armyworm): B (More than 0-Less than 50)
O=C(CNC(=O)c1ccc(/C=C/C(c2cccc(C(F)(F)F)c2)C(F)(F)F)cc1Br)NCC(F)(F)F (stereo not drawn) [P1] | A (50-100) | A (50-100) | –
CC(NC(=O)CNC(=O)c1ccc(/C=C/C(c2cc(Br)cc(Br)c2)C(F)(F)F)cc1Cl)C(F)(F)F (stereo not drawn) [P2010] | A (50-100) | A (50-100) | –

SMILES | CL Rating [1] | BAW Rating [2, 3] | also measured
O=C(CNC(=O)c1ccc(/C=C/C(c2cc(Cl)c(F)c(Cl)c2)C(F)(F)F)cc1C(F)(F)F)NCC(F)(F)F (stereo not drawn) [P1862] | A (50-100) | A (50-100) | –
Cc1cc(/C=C/C(c2cc(Cl)c(Cl)c(Cl)c2)C(F)(F)F)ccc1C(=S)NCC(=S)NCC(F)(F)F (stereo not drawn) [P15] | A (50-100) | A (50-100) | –
C[C@@H](NC(=O)c1ccc(/C=C/C(c2ccc(F)c(C#N)c2)C(F)(F)F)cc1C(F)(F)F)C(=O)NCC(F)(F)F (stereo partly drawn) [P804] | A (50-100) | A (50-100) | –
CCC[C@@H](NC(=O)c1ccc(/C=C/C(c2cc(Cl)c(Cl)c(Cl)c2)C(F)(F)F)cc1Br)C(=O)NCC(F)(F)F (stereo partly drawn) [FA19] | – | – | pest or weed control at 50 µg/cm2 [1]: 50 to 100%; pest or weed control at 50 µg/cm2 [2]: 50 to 100%
C[C@@H](NC(=O)c1ccc(/C=C/C(c2cc(F)cc(Br)c2)C(F)(F)F)cc1C(F)(F)F)C(=O)NCC(F)(F)F (stereo partly drawn) [P300] | A (50-100) | A (50-100) | –
CC(C)[C@@H](NC(=O)c1ccc(/C=C/C(c2cc(Cl)c(Cl)c(Cl)c2)C(F)(F)F)cc1Br)C(=O)NCC(F)(F)F (stereo partly drawn) [FA32] | – | – | pest or weed control at 50 µg/cm2 [1]: 50 to 100%; pest or weed control at 50 µg/cm2 [2]: 50 to 100%
CC(NC(=O)c1ccc(/C=C/C(c2cc(Cl)c(Cl)c(Cl)c2)C(F)(F)F)cc1C(F)(F)F)C(=O)NCCC(F)(F)F (stereo not drawn) [P1633A] | A (50-100) | A (50-100) | –
C[C@@H](NC(=O)c1ccc(/C=C/C(c2cc(Cl)c(Cl)c(Cl)c2)C(F)(F)C(F)(F)F)cc1Br)C(=O)NCC(F)(F)F (stereo partly drawn) [P1599] | A (50-100) | A (50-100) | –
C[C@@H](NC(=O)c1ccc(/C=C/C(c2ccc(Cl)c([N+](=O)[O-])c2)C(F)(F)F)cc1Br)C(=O)NCC(F)(F)F (stereo partly drawn) [P730] | A (50-100) | A (50-100) | –
CC(C)[C@@H](NC(=O)c1ccc(/C=C/C(c2cc(Cl)c(Cl)c(Cl)c2)C(F)(F)F)cc1C(F)(F)F)C(=O)NCC(F)(F)F (stereo partly drawn) [FA33] | – | – | pest or weed control at 50 µg/cm2 [1]: 50 to 100%; pest or weed control at 50 µg/cm2 [2]: 50 to 100%
Cc1cc(C(/C=C/c2ccc(C(=O)N[C@H](C)C(=O)NCC(F)(F)F)c(C(F)(F)F)c2)C(F)(F)F)ccc1F (stereo partly drawn) [P1092] | A (50-100) | A (50-100) | –
CC(NC(=O)c1ccc(/C=C/C(c2cc(Cl)c(Cl)c(Cl)c2)C(F)(F)F)cc1Br)C(=O)NCCC(F)(F)F (stereo not drawn) [P1631A] | A (50-100) | A (50-100) | –
C[C@@H](NC(=O)c1ccc(/C=C/C(c2cc(Br)c(Cl)c(Br)c2)C(F)(F)F)cc1C(F)(F)F)C(=O)NCC(F)(F)F (stereo partly drawn) [FA27] | – | – | pest or weed control at 50 µg/cm2 [1]: 50 to 100%; pest or weed control at 50 µg/cm2 [2]: 50 to 100%
O=C(CNC(=O)c1ccc(/C=C/C(c2cc(C(F)(F)F)cc(C(F)(F)F)c2)C(F)(F)F)cc1Br)NCC(F)(F)F (stereo not drawn) [P1269] | A (50-100) | A (50-100) | –
O=C(CNC(=O)c1ccc(/C=C/C(c2ccc(F)c(C(F)(F)F)c2)C(F)(F)F)cc1Br)NCC(F)(F)F (stereo not drawn) [P1483] | A (50-100) | A (50-100) | –
CCNC(=O)NCc1ccc(/C=C/C(c2cc(Cl)cc(Cl)c2)C(F)(F)F)cc1Cl (stereo not drawn) [CC31, (E)-1-(2-Chloro-4-(3-(3,5-dichlorophenyl)-4,4,4-trifluorobut-1-en-1-yl)benzyl)-3-ethylurea] | – | – | BAW Rating ([2]; Table 3, beet armyworm): B (More than 0-Less than 50)
CS(=O)(=O)c1cc(/C=C/C(c2cc(Cl)c(F)c(Cl)c2)C(F)(F)F)ccc1C(=O)NCC(=O)NCC(F)(F)F (stereo not drawn) [FA34] | – | – | pest or weed control at 50 µg/cm2 [1]: 50 to 100%
O=C(NCC(=S)NCC(F)(F)F)c1ccc(/C=C/C(c2cc(Cl)c(Cl)c(Cl)c2)C(F)(F)F)cc1Br (stereo not drawn) [AC92, (E)-2-Bromo-N-(2-thioxo-2-((2,2,2-trifluoroethyl)amino)ethyl)-4-(4,4,4-trifluoro-3-(3,4,5-trichlorophenyl)but-1-en-1-yl)benzamide] | – | – | BAW Rating ([2]; Table 3, beet armyworm): A (50-100)
C[C@@H](NC(=O)c1ccc(/C=C/C(c2cc(F)cc(Br)c2)C(F)(F)F)cc1Br)C(=O)NCC(F)(F)F (stereo partly drawn) [P298] | A (50-100) | – | –
N#CCN1CCC(NC(=O)c2ccc(/C=C/C(c3cc(Cl)c(Cl)c(Cl)c3)C(F)(F)F)cc2Br)CC1 (stereo not drawn) [AC107] | – | – | BAW Rating ([2]; Table 3, beet armyworm): B (More than 0-Less than 50)
O=C(NCc1ccc(/C=C/C(c2cc(Cl)c(Cl)c(Cl)c2)C(F)(F)F)cc1C(F)(F)F)c1cccnc1 (stereo not drawn) [CC23] | – | – | BAW Rating ([2]; Table 3, beet armyworm): A (50-100)
O=C(CCNC(=O)c1ccc(/C=C/C(c2cc(Cl)c(Cl)c(Cl)c2)C(F)(F)F)cc1C(F)(F)F)NCC(F)(F)F (stereo not drawn) [P1640] | A (50-100) | – | –
